Measurements from patent US20240425484A1, “INHIBITORS OF TYK2” (Atomwise Inc., priority 2023, published 2024).

Tests used:
[1] = target: T1, TYK2-JH2 (Homo sapiens, UniProt P29597); assay: TYK2-JH2 HTRF binding assay (ligand efficiency); settings: calculated (Equation 1) from IC50 of the TYK-JH2 binding assay
T1 construct: TYK JH2 enzyme mix (ChemPartner: CP20210818A-BV); purchased ChemPartner CP20210818A-BV
Method: The following example describes the TYK2-JH2 HTRF binding assay used to determine the ligand efficiency of the TYK2 inhibitors.
To calculate ligand efficiency, Equation 1 is applied: […]
in which IC50 comes from the binding assay used to determine compound potency.
TYK JH2 enzyme mix (ChemPartner: CP20210818A-BV), tracer (ChemPartner: CP-0029472-051) and mAb Anti-6HIS Tb cryptate Gold (Cisbio: Cat No. 61HI2TLA) mix were prepared in assay buffer (10 mM MgCl2, 20 mM HEPES pH 7.5, 0.01% Triton X-100, 1 mM DTT). Compounds diluted in DMSO (Final Concentrations 0.1 to 0.000005 [μM]) and enzyme mix (0.5 nM Final Concentration) were added to 384 well plates, briefly centrifuged and incubated at room temperature for 10 minutes. After incubation, tracer mix (Tracer-35 nM final concentration); (MAb Anti-6HIS Tb cryptate Gold-0.5X final)) was added, briefly centrifuged then incubate at room temperature 60 minutes. After incubation, plates were read by Envision TR-FRET (Ex340/Em495/520) protocol (PerkinElmer-Envision 2104 multilabel plate reader).

[2] = Mouse pharmacokinetic study, oral administration; format: in vivo; settings: male, mouse plasma, PO at 5 mg/kg; for half-life: read-out: Half-life t1/2; for Cmax: read-out: Maximum plasma concentration Cmax; for AUC(0-inf): read-out: Total systemic exposure AUCinf
Method: The following example describes the methods used to evaluate the pharmacokinetics of TYK2 inhibitors in vivo following dosing of a compound of the invention.
The pharmacokinetics of test compounds were evaluated in either male CD-1 mice or male C57BL/6 mice when administered by oral gavage and IV bolus injection. The animals were allowed free access to food and water before administration. The plasma samples were analyzed by LC-MS/MS and the concentration of test compound at each time point was determined by linear regression. Pharmacokinetic parameters were calculated from the plasma concentrations by non-compartmental modeling using WinNonlin 8.2.
Oral composition. To prepare a pharmaceutical composition for oral delivery, the test articles described herein were dissolved in DMSO and then mixed with necessary volume of PEG400 followed by 0.9% sterile saline or 5% dextrose in water or 5% Kolliphor HS 15 in saline to provide the final concentrations of 0.5 mg/mL or 1 mg/mL (Table 8). The resultant mixtures were suitable for oral administration.
The PK parameters measured in mouse plasma after treatment with TYK2 inhibitor compounds via PO (oral administration) at 5 mg/kg are summarized below in Tables 9-11.

T1 sequence (P29597 589-875 limits assumed): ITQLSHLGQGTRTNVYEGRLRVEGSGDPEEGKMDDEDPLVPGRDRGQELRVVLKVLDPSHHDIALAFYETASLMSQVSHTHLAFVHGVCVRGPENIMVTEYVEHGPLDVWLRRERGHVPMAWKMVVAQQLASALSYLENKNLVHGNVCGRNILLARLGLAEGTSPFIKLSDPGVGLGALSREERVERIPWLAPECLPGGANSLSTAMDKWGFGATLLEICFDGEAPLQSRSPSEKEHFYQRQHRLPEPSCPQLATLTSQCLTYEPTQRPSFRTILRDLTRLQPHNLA

Row | SMILES | Ligand Efficiency [1] | half-life [2] [h] | Cmax [2] [ng/mL] | AUC(0-inf) [2] [ng·h/mL]
1 | Cc1ccnc(Nc2cc(Nc3ccccc3S(C)(=O)=O)ncn2)c1 [Compound 44, N^4-(4-methylpyridin-2-yl)-N^6-(2-(methylsulfonyl)phenyl)pyrimidine-4,6-diamine] | ††† (†††: >0.39) | > 1.5 | < 800 | < 1000
2 | CS(=O)(=O)c1cccnc1Nc1cc(Nc2ccc3c(n2)CCCC3N2CC3(COC3)C2)ncn1 (stereo in doubt) [Compound 5, (R)—N^4-(5-(2-oxa-6-azaspiro[3.3]heptan-6-yl)-5,6,7,8-tetrahydroquinolin-2-yl)-N^6-(3-(methylsulfonyl)pyridin-2-yl)pyrimidine-4,6-diamine] | – | > 1.5 | > 1500 | > 2000
3 | Cc1nc(Nc2cc(Nc3ncccc3S(C)(=O)=O)ncn2)ccc1[C@H](C)N1CC2(COC2)C1 (stereo in doubt) [Compound 12, N^4-(5-(1-(2-oxa-6-azaspiro[3.3]heptan-6-yl)ethyl)-6-methylpyridin-2-yl)-N^6-(3-(methylsulfonyl)pyridin-2-yl)pyrimidine-4,6-diamine] | ††† (†††: >0.39) | < 1 | > 1500 | 1000 to 2000
4 | CC(c1ccc(Nc2cc(Nc3ncccc3S(C)(=O)=O)ncn2)nc1)N1CC2(CC(F)C2)C1 (stereo in doubt) [Compound 10, N^4-(5-((1R)-1-(6-fluoro-2-azaspiro[3.3]heptan-2-yl)ethyl)pyridin-2-yl)-N^6-(3-(methylsulfonyl)pyridin-2-yl)pyrimidine-4,6-diamine] | ††† (†††: >0.39) | – | – | –
5 | Cc1cccc(Nc2cc(Nc3cccnc3S(C)(=O)=O)ncn2)n1 [Compound 59, N^4-(6-methylpyridin-2-yl)-N^6-(2-(methylsulfonyl)pyridin-3-yl)pyrimidine-4,6-diamine] | ††† (†††: >0.39) | – | – | –
6 | CS(=O)(=O)c1cccnc1Nc1cc(Nc2cccc(C(F)(F)F)n2)ncn1 [Compound 19, N^4-(3-(methylsulfonyl)pyridin-2-yl)-N^6-(6-(trifluoromethyl)pyridin-2-yl)pyrimidine-4,6-diamine] | ††† (†††: >0.39) | – | – | –
7 | CC(NC1COC1)c1ccc(Nc2cc(Nc3ccccc3S(C)(=O)=O)ncn2)nc1 (stereo in doubt) [Compound 40, (R)—N^4-(2-(methylsulfonyl)phenyl)-N^6-(5-(1-(oxetan-3-ylamino)ethyl)pyridin-2-yl)pyrimidine-4,6-diamine] | ††† (†††: >0.39) | – | – | –
8 | CS(=O)(=O)c1ccccc1Nc1cc(Nc2ccc3c(n2)CCCC3N2CC3(CCOCC3)C2)ncn1 (stereo not shown) [Compound 27, N^4-(5-(7-oxa-2-azaspiro[3.5]nonan-2-yl)-5,6,7,8-tetrahydroquinolin-2-yl)-N^6-(2-(methylsulfonyl)phenyl)pyrimidine-4,6-diamine] | † (†: <0.37) | – | – | –
9 | CC(c1ccc(Nc2ncnc(Nc3ncccc3S(C)(=O)=O)c2F)nc1)N1CC2(COC2)C1 (stereo not shown) [Compound 75, N^4-(5-(1-(2-oxa-6-azaspiro[3.3]heptan-6-yl)ethyl)pyridin-2-yl)-5-fluoro-N^6-(3-(methylsulfonyl)pyridin-2-yl)pyrimidine-4,6-diamine] | † (†: <0.37) | – | – | –
10 | CC1(Nc2cnc(Nc3cc(Nc4ncccc4S(C)(=O)=O)ncn3)cn2)COC1 [Compound 74, N^4-(5-(3-methyloxetan-3-ylamino)pyrazin-2-yl)-N^6-(3-(methylsulfonyl)pyridin-2-yl)pyrimidine-4,6-diamine] | ††† (†††: >0.39) | – | – | –
11 | Cc1cccc(Nc2cc(Nc3ccncc3C(N)=O)ncn2)n1 [Compound 51, 4-((6-((6-methylpyridin-2-yl)amino)pyrimidin-4-yl)amino) nicotinamide] | ††† (†††: >0.39) | – | – | –
12 | Cc1ccnc(Nc2cc(Nc3ccccc3C(N)=O)ncn2)n1 [Compound 58, 2-(6-(4-methylpyrimidin-2-ylamino)pyrimidin-4-ylamino)benzamide] | ††† (†††: >0.39) | – | – | –
13 | Cc1ccnc(Nc2cc(Nc3ccccc3C(N)=O)ncn2)c1 [Compound 45, 2-((6-((4-methylpyridin-2-yl)amino)pyrimidin-4-yl)amino)benzamide] | ††† (†††: >0.39) | – | – | –
14 | COc1ccnc(Nc2cc(Nc3cccc(C)n3)ncn2)c1S(C)(=O)=O [Compound 65, N^4-(4-methoxy-3-(methylsulfonyl)pyridin-2-yl)-N^6-(6-methylpyridin-2-yl)pyrimidine-4,6-diamine] | ††† (†††: >0.39) | – | – | –
15 | C[C@H]1CN(C2CC2)CCN1c1ccc(Nc2cc(Nc3ncccc3S(C)(=O)=O)ncn2)nc1 [Compound 8, (S)—N^4-(5-(4-cyclopropyl-2-methylpiperazin-1-yl)pyridin-2-yl)-N^6-(3-(methylsulfonyl)pyridin-2-yl)pyrimidine-4,6-diamine] | ††† (†††: >0.39) | > 1.5 | 800 to 1500 | 1000 to 2000
16 | Cc1nc(Nc2cc(Nc3ncccc3S(C)(=O)=O)ncn2)ccc1NC1(C)COC1 [Compound 6, N^4-(6-methyl-5-((3-methyloxetan-3-yl)amino)pyridin-2-yl)-N^6-(3-(methylsulfonyl)pyridin-2-yl)pyrimidine-4,6-diamine] | ††† (†††: >0.39) | < 1 | > 1500 | > 2000
17 | Cc1cncc(Nc2cc(Nc3ccccc3C(N)=O)ncn2)n1 [Compound 49, 2-(6-(6-methylpyrazin-2-ylamino)pyrimidin-4-ylamino)benzamide] | ††† (†††: >0.39) | – | – | –
18 | CS(=O)(=O)c1ccccc1Nc1cc(NC(=O)C2CC2)ncn1 [Compound 69, N^4-(cyclopropylcarbonyl)-N^6-(2-(methylsulfonyl)phenyl)pyrimidine-4,6-diamine] | ††† (†††: >0.39) | – | – | –
19 | C[C@@H](c1ccc(Nc2cc(Nc3ncc(Cl)cc3S(C)(=O)=O)ncn2)nc1)N1CC2(COC2)C1 [Compound 14, (S)—N^4-(5-(1-(2-oxa-6-azaspiro[3.3]heptan-6-yl)ethyl)pyridin-2-yl)-N^6-(5-chloro-3-(methylsulfonyl)pyridin-2-yl)pyrimidine-4,6-diamine] | ††† (†††: >0.39) | – | – | –
20 | CC(c1ccc(Nc2cc(Nc3ncccc3S(C)(=O)=O)ncn2)nc1C(F)(F)F)N1CC2(COC2)C1 (stereo in doubt) [Compound 11, (R)—N^4-(5-(1-(2-oxa-6-azaspiro[3.3]heptan-6-yl)ethyl)-6-(trifluoromethyl)pyridin-2-yl)-N^6-(3-(methylsulfonyl)pyridin-2-yl)pyrimidine-4,6-diamine] | – | > 1.5 | 800 to 1500 | > 2000
21 | Cc1cccc(Nc2cc(Nc3ccccc3NS(C)(=O)=O)ncn2)n1 [Compound 53, N-(2-(6-(6-methylpyridin-2-ylamino)pyrimidin-4-ylamino)phenyl) methanesulfonamide] | ††† (†††: >0.39) | – | – | –
22 | Cn1ccc(Nc2cc(Nc3ccccc3C(N)=O)ncn2)n1 [Compound 67, 2-((6-((1-methyl-1H-pyrazol-3-yl)amino)pyrimidin-4-yl)amino)benzamide] | ††† (†††: >0.39) | – | – | –
23 | CC(c1ccc(Nc2cc(Nc3ncc(C4COC4)cc3S(C)(=O)=O)ncn2)nc1)N1CC2(COC2)C1 (stereo not shown) [Compound 78, N^4-(5-(1-(2-oxa-6-azaspiro[3.3]heptan-6-yl)ethyl)pyridin-2-yl)-N^6-(3-(methylsulfonyl)-5-(oxetan-3-yl)pyridin-2-yl)pyrimidine-4,6-diamine] | † (†: <0.37) | – | – | –
24 | Cc1cccc(Nc2cc(Nc3ccncc3S(C)(=O)=O)ncn2)n1 [Compound 60, N^4-(6-methylpyridin-2-yl)-N^6-(3-(methylsulfonyl)pyridin-4-yl)pyrimidine-4,6-diamine] | ††† (†††: >0.39) | – | – | –
